Several values for one entry are separate records, joined by “and”; a condition that tells them apart may be missing. Identical values can stand only once.
Assays:
CaR = target: T1, CaR (Homo sapiens, UniProt P41180); experiment: Cytosolic calcium changes in purified monocytes (Indo-1/AM, flow cytometry); format: cell-based
T1 construct: endogenous in cells; host or cells: peripheral blood CD14+ monocytes, sorted by FACS
T1 sequence (P41180 20-1078): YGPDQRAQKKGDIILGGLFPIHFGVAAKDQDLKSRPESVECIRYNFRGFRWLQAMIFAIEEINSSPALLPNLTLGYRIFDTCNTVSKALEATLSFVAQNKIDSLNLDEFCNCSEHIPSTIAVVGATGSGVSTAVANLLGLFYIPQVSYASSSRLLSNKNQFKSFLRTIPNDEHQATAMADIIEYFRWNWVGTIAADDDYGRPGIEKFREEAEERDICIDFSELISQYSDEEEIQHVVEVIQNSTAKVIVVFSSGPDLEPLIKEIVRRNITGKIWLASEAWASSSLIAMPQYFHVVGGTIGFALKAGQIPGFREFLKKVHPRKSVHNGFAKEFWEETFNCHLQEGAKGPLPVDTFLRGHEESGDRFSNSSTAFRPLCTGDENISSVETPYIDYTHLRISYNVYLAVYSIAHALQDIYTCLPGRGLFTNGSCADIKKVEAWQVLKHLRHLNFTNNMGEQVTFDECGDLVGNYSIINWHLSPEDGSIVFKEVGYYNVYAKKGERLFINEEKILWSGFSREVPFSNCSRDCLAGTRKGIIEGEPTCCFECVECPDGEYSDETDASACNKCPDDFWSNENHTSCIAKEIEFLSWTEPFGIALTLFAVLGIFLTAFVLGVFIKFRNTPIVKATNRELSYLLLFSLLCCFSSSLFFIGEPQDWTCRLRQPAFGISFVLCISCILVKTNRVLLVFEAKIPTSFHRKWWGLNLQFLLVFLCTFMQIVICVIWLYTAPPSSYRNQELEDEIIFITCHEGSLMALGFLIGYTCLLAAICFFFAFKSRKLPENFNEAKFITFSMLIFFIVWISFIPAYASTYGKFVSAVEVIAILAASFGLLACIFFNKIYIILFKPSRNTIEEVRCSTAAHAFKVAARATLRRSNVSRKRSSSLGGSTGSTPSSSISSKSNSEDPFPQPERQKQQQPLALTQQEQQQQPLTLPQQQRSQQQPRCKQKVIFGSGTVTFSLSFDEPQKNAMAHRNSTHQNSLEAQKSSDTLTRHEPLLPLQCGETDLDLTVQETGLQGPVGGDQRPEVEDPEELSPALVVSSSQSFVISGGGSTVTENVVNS
Method: (§1) Preparation of peripheral blood CD14^+ monocytes. Low density cells were isolated from human and mouse peripheral blood using Ficoll-Hypaque (Pharmacia, Piscataway, N.J.). CD14^+ monocytes were purified by sorting on FACSVantage (Becton Dickinson, San Jose, Calif.) based on CD14 expression. Purified cells were incubated in either calcium-free medium (Hanks' Balanced Salt Solution 1×, CellGro, Hermdon. VA) or Iscove's Medium 1×(Mod) (CellGro, Herndon, Va.) which contains 1.5 mM Ca++. […] Cells were incubated for up to 24 hours in 5% CO2 humidified air. Monocytes were then detached from the plate using a cell scraper. All calcium concentrations indicated in the presentation of the data represent the total Ca^++ present in the basal medium plus any added Ca^++.
Cytosolic calcium changes. Purified monocytes were loaded with Indo-1/AM (Molecular Probes, Eugene, Oreg.). Cells were collected on FACSVantage for 0.30 sec to establish a baseline emission value for Indo-1/AM. […] Data acquisition then continued for up to 5 minutes.

CD14^+ monocytes = experiment: Transmigration assay (monocyte chemotaxis, transwell); format: cell-based, human
Method: as §1
(§2) Transmigration assays. Transwells (5 μm pore size polycarbonate membrane, 12 mm diameter) (Costar, Corning, N.Y.) were used to assess cell migration using an established methodology (25). The concentration of Ca^++ in IMDM (CellGro, Herndon, Va.) in the upper and lower chambers of the transwell were adjusted according to a checkerboard analysis of chemotaxis. Calcium concentrations varied from 0 mM to 6.5 mM. Purified monocytes (1×10^4) were then placed in the top chamber with 150 μl of IMDM (CellGro, Hemdon, Va.). 500 μl of the medium was added to the bottom of the well and supplemented with varying concentrations of Ca^++ or with Ca^++ plus 10 ng/ml of MCP-1, 100 ng/ml of SDF-1α or 10 ng/ml of MIP-1α (PeproTech, Rocky Hills, N.Y.). Cells were incubated at 37° C. for 3 hours. To study inhibition of chemotaxis, cells were subsequently incubated with wortmannin (1 μM for 20 minutes at 37° C.), herbimycin (1 μM for 20 minutes at 37° C.) or genistein (1 μg/ml for 20 minutes at 37° C.), before their use in transmigration assays. At the end of the experiment, cells were then harvested from the lower chamber and counted using a hemocytometer.

[1] = system: mononuclear cells derived from neonatal CaR −/−, +/− or +/+ mice; experiment: Transmigration assay with cells from CaR knockout and wild-type mice; format: cell-based, mouse; conditions: CaR −/− cells
Method: as §2
CaR−/− were bred as previously described (Ho, C., et al., Nat Genet 1995, 11:389-94). To produce CaR−/− mice for this study, heterozygote mice were intercrossed. The mice studied were either 129S6/svev or 129S6/svev/Swiss Webster mixed genetic background. […]

CCR-2 = experiment: Chemokine receptor expression on monocytes by flow cytometry: CCR-2; format: cell-based, human
Method: Chemokine receptor expression and flow cytometric analysis.
Table 1: Exposure of CD14^+ monocytes to Ca^++ enhances CCR2 expression in a dose dependent manner. Monocytes were exposed to varying concentrations of Ca^++ and to the selective CaR activator, NPS R-467 (1 μM), or to NPS S-467 (1 μM) in the presence of 1.5 mM Ca^++. The median fluorescence intensity for CCR2 expression was measured for each Ca^++ concentration and in the presence of NPS R-467 or S-467. Mean values +/−s.e.m. from three independent experiments are shown.

Q: Which “Increase in cytosolic calcium” value (CaR; 4.5 mM Ca^++) does the source give for `[Ca+2].[Cl-].[Cl-]` [Ca^++, calcium chloride] here?
A: Sustained increases

Q: And the “Extracellular Ca^++ concentration giving maximal cytosolic Ca^++ response” value (CaR; monocytes, dose dependent)?
A: 4.5 mM

Q: What about the “Ca^++ concentration giving maximal chemotaxis” value (CD14^+ monocytes) of the same molecule?
A: 4.5 mM

Q: What about the “Ca^++ concentration giving peak migration in response to MCP-1” value (CD14^+ monocytes) of the same molecule?
A: 4.5 mM

Q: And the “Transmigration to the Ca^++ gradient” value [1]?
A: failed to transmigrate

Q: And the “Cell surface CCR-2 expression” value (CCR-2)?
A: up-modulation

Q: And the “Mean fluorescent intensity -CCR-2 Mean +/− s.e.m.” value (CCR-2)?
A: 278 +/− 39 and 296 +/− 35 and 307 +/− 35

From patent US7951364B2, “CaR receptor as a mediator of migratory cell chemotaxis and/or chemokinesis” (The General Hospital Corporation, priority 2000, dated 2011)
